How the values were obtained:
[1] = test system: human Th1 cells; experiment: In vitro human Th1 differentiation; format: cell-based; conditions: 500 ng/ml; IL-12
Procedure: (§1) In vitro human T cell differentiation. For Th17 differentiation, naive CD45RA+ CD4+ T cells were isolated from PBMCs with magnetic beads (Naive Human CD4+ T Cell Isolation Kit II, Miltenyi Biotec) and seeded at a density of 5×10^5 cells/ml in 24-well plates coated with anti-CD3 and (2 μg/ml) and soluble anti-CD28 and cultured in the presence of the following cytokines IL-1β (25 ng/ml), IL-6 (50 ng/ml), and TGF-β1 (2 ng/ml) and neutralizing antibodies to IFN-g ([…]) and IL-4 (10 microgram/ml). Alternatively, Th17 cells were differentiated by using IL-1β (25 ng/ml), IL-6 (50 ng/ml), and IL-23 (50 ng/ml) and neutralizing antibodies to IFN-g ([…]) and IL-4 (10 microgram/ml). For Th1 differentiation naïve CD4+T cells are cultured in the presence of IL-12 (20 ng/ml) and anti-IL-4 (10 μg/ml).

[2] = test system: human CD4+ T cells activated under Th17 polarizing conditions; experiment: In vitro human Th17 differentiation; format: cell-based; conditions: 500 ng/ml
Procedure: as §1
(§2) Secreted cytokines were measured in tissue culture supernatants after 72-96 hs by enzyme-linked immunosorbent assay as previously described (Farez et al., 2009).

[3] = test system: nr1d1 reporter-transfected HEK293 cells; experiment: nr1d1 promoter luciferase reporter assay; format: cell-based; conditions: nr1d1 promoter controls luciferase expression
Source text: The IL-10 promoter reporter and C-Maf and AhR vectors were previously described (Apetoh et al., 2010), vector expressing ROR-α were purchased from PlasmID at Harvard Medical School. Vectors coding for C/EBPα (44627) and Bmal reporter (46824) were purchased from Addgene. The retrovirus used for nfil3 overexpression in T cells was graciously provided by Laura Hooper (UT Southwestern, TX, USA). The retrovirus used for nr1d1 overexpression in T cells was graciously provided by Bart Staels (Institut Pasteur, Lille, France, […]). The nr1d1 promoter reporter was graciously provide by Vincent Laudent (Ecole Normale Supérieure, Lyon, France).
HEK293 cells were grown in DMEM supplemented with 10% FBS and were transfected with FuGENE HD transfection reagent and 2 μg of each plasmids according the manufacturer's instructions (Roche). Firefly and renilla luciferase activity was analyzed 48 h after transfection and 24 h after treatment with a Dual Luciferase Assay kit (Promega).

[4] = test system: murine Th17 cell differentiation; experiment: In vitro mouse Th17 cell differentiation; format: cell-based; conditions: for differentiation of Th17 cells (rorc, IL-17, IL-23 receptor): wild type, melatonin 2 ng/ml, agomelatine 20 ng/ml, ramelteon 10 ng/ml, CGP 52608 20 ng/ml
Procedure: For intracellular cytokine staining, cells were stimulated for 4 h at 37° C. with phorbol 12-myristate 13-acetate (50 ng/ml; Sigma), ionomycin (1 μg/ml; Sigma) and monensin (GolgiStop; 1 μg/ml; BD Biosciences). After being stained for surface markers, cells were fixed and made permeable according to the manufacturer's instructions (BD Biosciences). All antibodies against cytokines were from Biolegend. All experiments were started at the same time (8-9 am). Data were collected with a LSR II or FACSAria (BD Biosciences), then were analyzed with FlowJo software (Treestar).
(§3) Naive CD4+ T cells (CD4+CD44loCD62LhiCD25−) were from the spleen and lymph node of C57BL/6 wild-type, MTNR1A−, NFIL3−, REV-ERBα, C/EBPα-deficient or RORα-deficient mice using magnetic beads (CD4+ T cell isolation kit, Miltenyi Biotec). All experiments were started between 7 and 9 am. Cells were activated with plate-bound anti-CD3 (2 μg/ml; 14-0031-86; eBioscience) and anti-CD28 (2 μg/ml; 16-0281-86; eBioscience). Mouse IL-27 (30 ng/ml; 34-8271; Biolegend) was added for the generation of Tr1 cells. IL-6 (30 ng/ml; 406-ML-025; R&D Systems), TGF-β1 (15 ng/ml; 130-095-067; Miltenyi Biotec), anti-IL-4 (2.5 μg/ml; C17.8; Biolegend) and anti-IFN-γ (5 μg/ml; XMG1.2; Biolegend) were added for the generation of Th17 cells. Recombinant mouse IL-23 (30 ng/ml; 1887-ML-010; R&D Systems) was added at day 2. For some experiments IL-6 and […] (10 ng/ml; 401-ML-025; R&D Systems) or TGF-β1 and IL-21 (100 ng/ml; 594-ML-010; R&D Systems) were used in instead for Th17 cell differentiation. IL-12 (30 ng/ml; 419-ML-010; R&D Systems) and anti-IL-4 (2.5 μg/ml; C17.8; Biolegend) were used for the generation of Th1 cells. IL-4 (30 ng/ml; 404-ML-010; R&D Systems) and anti-IFN-γ (5 μg/ml; XMG1.2; Biolegend) was added for the generation of Th2 cells. TGF-β1 (15 ng/ml; 130-095-067; Miltenyi Biotec) was used for the generation of Foxp3+ Tregs. Melatonin (Gador, Argentina), Agomelatin, and CGP-52608 (Sigma-Aldrich) were added at the start of the cultures and at day 2, at a final concentration of 2-20 ng/ml.
as §2

[5] = test system: human CD4+ T cells activated under Tr1 polarizing conditions; experiment: In vitro human Tr1 differentiation; format: cell-based; conditions: 500 ng/ml
Source text: We then studied the effects of melatonin on human CD4^+ T cells. In addition, we also analyzed the effects of agomelatine, which activates melatonin-dependent signaling (Hickie and Rogers, 2011). Based on the effects of melatonin administration on T cells during EAE, we focused our studies on human Th17 and Tr1 cells. Melatonin and agomelatine reduced the production of IL-17, RORC and IL17A expression by human CD4^+ T cells activated under Th17 polarizing conditions (FIGS. 3a-c and FIG. 8), no effect was detected on the differentiation of human Th1 cells (FIGS. 3d-f). Concomitantly, melatonin and agomelatine increased IL10 expression.

[6] = test system: Tr1 cells; experiment: In vitro mouse Tr1 cell differentiation; format: cell-based; conditions: agomelatine 20 ng/ml, CGP 52608 20 ng/ml
Procedure: as §3

[7] = molecular target: T1, MT2 melatonin receptor (Homo sapiens, UniProt P49286); conditions: nonselective ligand; cited from earlier work
T1 sequence (P49286 1-362): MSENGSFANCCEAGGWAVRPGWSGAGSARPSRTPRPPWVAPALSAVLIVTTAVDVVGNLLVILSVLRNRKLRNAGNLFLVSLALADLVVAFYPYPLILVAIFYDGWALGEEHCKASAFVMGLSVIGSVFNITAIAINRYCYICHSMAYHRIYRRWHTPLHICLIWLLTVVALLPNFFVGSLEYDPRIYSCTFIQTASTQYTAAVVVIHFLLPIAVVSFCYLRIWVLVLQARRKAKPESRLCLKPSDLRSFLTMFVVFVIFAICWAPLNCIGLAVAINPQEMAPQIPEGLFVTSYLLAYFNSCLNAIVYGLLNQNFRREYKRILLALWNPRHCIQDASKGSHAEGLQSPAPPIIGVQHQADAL

Compound: COc1ccc2cccc(CCNC(C)=O)c2c1 [agomelatine, N-[2-(7-methoxynaphthalen-1-yl)ethyl]acetamide]
- differentiation of human Th1 cells [1]: no effect
- production of IL-17, RORC and IL17A expression [2]: reduced
- IL10 expression ([2]; Th17 polarizing conditions): increased
- luciferase activity [3]: decreased
- differentiation of Th17 cells (rorc, IL-17, IL-23 receptor) [4]: suppressed
- IL-10 production [5]: increased
- Tr1 cell differentiation [6]: boosted

Compound: CCOC(=O)N1CCC(CN(Cc2ccc(Cl)cc2)Cc2ccc([N+](=O)[O-])s2)C1 (stereo not drawn) [SR9009]
- differentiation into Th17 cells (RT-PCR) ([4]; SR9009 5 micromolar, 72 hr): suppresses

Compound: CC(=O)NCCc1c(Cc2ccccc2)[nH]c2ccccc12 [Luzindole, N-[2-(2-benzyl-1H-indol-3-yl)ethyl]acetamide]
- higher affinity for the MT2 melatonin receptor [7]: 15- to 25 fold

Compound: CCC(=O)NCC[C@@H]1CCc2ccc3c(c21)CCO3 [ramelteon, (S)—N-[2-(1,6,7,8-tetrahydro-2H-indeno[5,4-b]furan-8-yl)ethyl]propionamide]
- differentiation of Th17 cells (rorc, IL-17, IL-23 receptor) [4]: suppressed

Compound: C=CCN1C(=O)CS/C1=N/NC(=S)NC [CGP 52608]
- differentiation of Th17 cells (rorc, IL-17, IL-23 receptor) [4]: boosted
- Tr1 cell differentiation [6]: boosted

Reference: patent US10555919B2, “Melatonin in autoimmune disease” (The Brigham and Women's Hopsital, Inc., priority 2014, dated 2020)
